Results from patent US6207644A, “Peptide analogues containing a 7-membered lactam ring” (Zeneca Limited, priority 1996, dated 2001).

Columns and labels:
[1] = biological target: HLA-DR3; assay: Variant to Test A: peptide selectivity binding assay, HLA-DR3; parameters: species or system human; conditions: no significant binding
Method: (§1) As a varient to test A, the ability of a peptide of the invention to bind to one or more HLA-DR molecules was assessed as follows:
(§2) The method used was a modification of that described by Gorga et al, 1987, J.Biol.Chem. 262, 16087-16094. Human HLA-DR antigens were purified from various cell lines by immunoaffinity chromatography. […] Protein content was determined by a Biorad protein assay and purity by SDS-PAGE electrophoresis.
(§3) 200 nM biotin-FHA307-320 in phosphate buffered saline (PBS) was incubated with either purified HLA-DR1, DR2, DR4Dw4, DR4Dw13 or DR4Dw14 (2-20 μg/ml) in V-well microtitre plates (Nunc) with or without inhibitor peptides in assay buffer (PBS, 0.01% NP40 (Sigma.)) For DR3 inhibition, 400 nM Biotin-Ahx-(D)Ala-Ala-Ala-Che-Ile-Ala-Ala-Ala-Thr-Leu-Lys-Ala-Ala-(D)Ala-OH (SEQ ID NO:25) was incubated with purified DR3 (20 μg/ml), and incubated as above. After 48 hours, the incubates were treated, and absorbance readings taken as described in Test A. The inhibitory activity of peptides, expressed as IC50 values, was calculating using Microcal Origin software on a PC.

[2] = biological target: T1, HLA-DR4Dw4 (Homo sapiens, UniProt P01903+P01911, A100K/A169T/F76Y/I96L/K127E/L162R/M171V/N62H/P40V/Q125Y/R42H/S133A/S149N/S66Y/V115G/V209L/W38E); assay: Test A: purified HLA-DR peptide in vitro binding assay (or its variant)
T1 construct: made in house; host or cells: double-recombinant baculovirus in Sf21 insect cells (Test A), or the human JAH cell line (variant to Test A)
Method: Purified HLA-DR peptide in vitro binding assay. […]. At the end of the incubation period 100 μl of the incubate is transferred to Enzyme Linked ImmunoSorbant Assay (ELISA) plates (Nunc) previously coated with an anti-MHC antibody (L243-American Type Culture Collection (ATCC) HB55 as described in Lampson and Levy (1980) J. Immunol. 125, 293-299) at a concentration of 10 μg/ml for 1 hour at room temperature and blocked thereafter for 1 hour with 1% bovine serum albumin (BSA) in PBS and 0.05% Tween 20. […] The reaction is stopped by adding 2M sulphuric acid (10 μl per well) and the absorbance read at 450 nm to quantify the amount of peptide bound. The inhibitory activity of peptides is obtained by plotting absorbance against concentration. […]
To create the double-recombinant baculovirus, a cDNA encoding the β chain is cloned into the transfer vector pAcUW1 [Weyer, U; Knight, S & Possee, R D (1990) J. Gen. […] Double-recombinant viruses are detected by spotting insecT-cells, infected with randomly picked viruses from the transfection,onto membranes and reacting them with a monoclonal antibody e.g. L243 which specifically recognises the HLA-DR heterodimer. Binding of the antibody to Sf21 insecT-cells is detected using standard flow cytometry techniques, readily available in the literature. […]

[3] = Loss of peptide due to degradation on extrusion of polymer depot formulation; format: physicochemical; conditions: in the form of a polymer depot formulation
Method: Typical procedures for measuring the level of degradation of a peptide compound of the present invention are as follows:
About 20 mg of peptide is accurately weighed and sufficient polymer (50/50% molar poly(D,L-lactic acid/glycolic acid) copolymer of approximate weight average molecular weight 20 kD and approximate polydispersity of 1.7 as determined by size exclusion chromatography relative to polystyrene standards) added to produce an approximate 20% w/w mixture. This is dissolved in anhydride-free glacial acetic acid to produce an approximate 10% w/v solution. The solution is freeze dried and the resulting freeze dried product is stored under vacuum prior to use.
About 100 mg of freeze dried material is loaded into the barrel of a small laboratory extruder and the plunger pushed down to consolidate the sample. […]
Each standard is filtered through a 5 μm Millex PTFE filter and an aliquot of filtrate, together with aliquots of the solutions A, analysed by HPLC using duplicate sample injections. The peptide content of the extruded polymer depot formulation of peptide is calculated from the concentration of peptide in solutions A, which is determined by comparing the area of the peptide peak in solutions A with the area of the peptide peak from the standard solutions.

[4] = test system: BALB/C mice; assay: Test C: peptide stimulated DTH (delayed type hypersensitivity) in BALB/C mice; format: in vivo; conditions: osmotic mini-pump
Method: Peptide stimulated DTH (delayed type hypersensitivity) in BALB/C mice. […] Balb/c female mice (18-20 g), 5 per group, were immunised sub-cutaneously on the flank with 0.1 ml of an emulsion of ovalbumin (Sigma) (2 mg/ml in saline) mixed 1:1 (v/v) with complete Freunds adjurant (Sigma). Seven days later footpad thickness was detemined using a dual caliper micrometer followed by a challenge in one hind footpad with a 30 μl sub-plantar injection of 1% heat-aggregated ovalbumin protein in saline. Twenty-four hours after antigen challenge, footpads were measured and the DTH response calculated as the percentage increase in footpad thickness in the injected footpad compared to contralateral control. Inhibitors were adminstered by 3-day osmotic mini-pumps (Alzet) implanted 24 hours prior to antigen challenge at doses ranging from 10 mg/kg/day to 0.1 μg/kg/day. The degree of inhibition was calculated by substracting the value for swelling of inhibitor treated footpads from that of the vehicle dosed controls, dividing by the control value and multiplying by 100%.

[5] = test system: HLA-DR1; assay: Variant to Test A: peptide selectivity binding assay, HLA-DR1; parameters: species or system human
Method: as §1, §2, §3

[6] = Aqueous stability of peptide in McIlvaine's buffer; format: physicochemical
Method: A typical procedure for measuring the stability of a peptide compound of the present invention is as follows, in which, to minimize microbial contamination and degradation, all equipment that is used to prepare peptide solutions is sterilized in an autoclave and all material transfers carried out in a Class II laminar flow cabinet. Approximately 20 ml of McIlvaine's citric acid-phosphate buffer solution at pH 3 or 7.6 containing 0.02% sodium azide is filtered into a 50 ml bottle using a sterile […] filter unit and a 20 ml syringe. Approximately 1.2 mg of peptide is accurately weighed in a capped vial. Using a sterile pipette tip, sufficient buffer solution is added to the peptide in the vial to give a peptide concentration of 0.1 mg/ml. The vial is capped and shaken to dissolve the peptide. Using a sterile pipette tip, aliquots of approximately 1 ml of the peptide solution are transferred to 10 HPLC vials, which are then capped. 5 vials are stored at -18 and 37° C. The area of the peptide peak for the solution is determined by HPLC using appropriate standards initially and after storage at -18 and 37° C. for 1, 2, 3 and 4 weeks, using a fresh vial at each time point with duplicate sample injections. The percentage of peptide remaining after storage at 37° C. at each time point is determined from the ratio of the area of the peptide peak at each time point to the initial area. […]

[7] = Degradation of peptide on in vitro release from an extruded polymer depot; format: physicochemical; conditions: in the form of a polymer depot formulation
Method: A solution of McIlvaine's citric acid-phosphate buffer solution at pH 7.6 containing 0.02% sodium azide, is filtered through a 0.22μ filter and stored at 4° C. Approximately 10 mg of extruded polymer depot containing peptide is placed in two small vials and 2 ml of the buffer solution added. The vials are then capped and stored in a water bath at 37° C. for a month. At suitable time points over a month, three 0.6 ml aliquots of release medium are removed from each vial and either analysed by HPLC or stored frozen in an HPLC vial at -18° C. prior to analysis by HPLC. 1.8 ml of the buffer solution is added to each vial containing the depot to replace the release medium that has been removed at each time point.
The average amount of intact peptide in the release medium at each time point is determined by HPLC using duplicate sample injections by comparing the area of the peptide peak in the release media with the area of the peptide peak from standard buffer solutions of peptide at known concentrations. The approximate average amount of peptide degradation products in the release media at each time point is determined by HPLC by comparing the area of additional new peaks in the release media with the area of the peptide peak from standard buffer solutions of peptide at known concentrations and assuming the extinction coefficient has not changed. […]

[8] = test system: HLA-DR2; assay: Variant to Test A: peptide selectivity binding assay, HLA-DR2; parameters: species or system human
Method: as §1, §2, §3

## C[C@H](NC(=O)CN1CCCC[C@H](NC(=O)[C@H](C)NC(=O)[C@H](C)NC(=O)[C@H](CCCNC(=N)N)NC(=O)CCCCc2ccccc2)C1=O)C(=O)N[C@@H](C)C(=O)N[C@@H](C)C(=O)Nc1ccc(CC(N)=O)cc1 [Example 1, Phv-Arg-Ala-Ala-IIb-Ala-Ala-Ala-Papa-NH2]
[1]
  IC50: > 100 µM
[2]
  concentration showing significant binding to HLA-DR4Dw4: ≤ 0.1 µM
[3]
  loss due to degradation on extrusion: minimal loss due to degradation on extrusion
[4]
  dose at which active in Test C: < 0.1 mg/kg/day
[5]
  binding to HLA-DR1: significant binding
[6]; pH3
  aqueous stability: good aqueous stability
[6]; pH7.6
  aqueous stability: good aqueous stability
[7]
  degradation on release from depot formulation: minimal degradation on release
[8]
  binding to HLA-DR2: significant binding
